Laboratory results as given in patent publication US20040110681A1, “Method to identify targeting molecules” (priority 2002, published 2004).
Several values for one entry are separate records, joined by “and”; a condition that tells them apart may be missing. Identical values can stand only once. Positions of bridges follow the written chain, without caps; N, C: chain ends. Non-standard residues stand in square brackets, D forms with d. Residues, ends and D or L forms follow the SMILES beside them. hArg = N=C(N)NCCCC[C@H](N)C(=O)O; Mpa = O=C(O)CCS

Columns and labels:
[1] = tested on: platelets adhering to the pial vasculature; test: Intravital microscopy of platelet adhesion to pial vessels, LPS-induced model of sepsis
Description: The effect of the A3 mimetic of blood cell adhesion to brain vasculature was assessed by intravital microscopy. Platelets or leukocytes were fluorescently labeled and then the interaction of the labeled cells with the vascular endothelium imaged and analyzed pre and post the addition of various compounds. Platelets were isolated from blood of source animals by differential centrifugation at 200 g for 10 minutes, to pellet erythrocytes and leukocytes. The supernatant, designated platelet-rich plasma contained less than 0.5% leukocytes as determined by the number of DAPI-positive nucleated cells. The platelets were pelleted by spinning at 500 g, resuspended in Tyrode's buffer and incubated for 20 min with 5-,-6-carboxyfluorescein diacetate, succinimidyl ester (CFDA, or CFSE). 1×10^8 platelets in 0.1 ml were injected slowly over 5 minutes via a carotid catheter into anesthetized mice. […] Platelet rolling and adhesion was recorded for off-line analysis onto videotape or onto hard-drive of the computer via an intensified camera (Cascade, Roper Scientific) on a Leica DM-FSA upright microscope. […] Leukocytes are fluorescence-labeled in vivo by injecting Rhodamine 6G via a carotid catheter and analyzing the movement of the labeled cells on brain endothelium.
For the platelet studies a known antagonist of platelet-platelet interactions, Integrilin™ (Cor Therapeutics) was also evaluated. […]

[2] = Pharmacokinetic analysis, plasma half-life of fusion protein and free peptide; format: in vivo; details: read-out: plasma t½
[3] = tested on: brain tissue; test: Individual peptide variants of A3 on phage, brain selectivity index vs T7-lacZ; format: in vivo, FVB or BALB/c mice; details: 2 hours circulation; for Brain Targeting Activity: 0.5-1×10^10 pfu co-injected with T7-lacZ; for Selectivity index (FVB female) / Selectivity index (BALB/C mice): brain tissue; for Selectivity index (FVB female): FVB female mice
Description: In this example, various individual peptide variants of A3 were tested in vivo for their ability to target brain or other tissues. […] The phage contents of each organ were determined by plaque assay in the presence of X-gal (500 μg/mL) in top agar.
Thus, selectively indices of less than 10 are considered low, those between 10 and […] are considered moderate and those over 100 are considered high.

[4] = tested on: brain, lung, liver, kidney, blood and spleen; test: Pharmacokinetic (PK) analysis of T7-CAGALCY and T7-lacZ phage, plaque assay; format: in vivo, FVB female mice
Description: A3-T7 was amplified in the host strain BLT-5615 in the presence of 1 mM IPTG and purified. T7-lacZ phage were amplified by large scale plating on LB plates. The plates were incubated at 25° C. overnight, and phage were eluted with phage extraction buffer (20 mM Tris-HCl, pH 8.0, 100 mM NaCl, 6 mM MgSO4) overnight at 4° C. with gentle rocking. The extracted phage were pooled and purified. In the PK study, in paragraph A below, three mice were used per time point, co-injected with 1×10^10 pfu of each phage. Time points were 2 min, 10 min, 30 min, 1 hr, 2 hr, 4 hr, 6 hr, 12 hr, and 24 hr.
Mice were anesthetized with Avertin 2-4 minutes before the scheduled harvest time (the mice assigned to the 2 minute time-point were anesthetized prior to administration of the phage). The brain, lung, liver, kidney, blood and spleen were harvested at 2 min, 10 min, 30 min, 1 hr, 2 hr, 4 hr, 6 hr, 12 hr, and 24 hr. The phage contents in each organ were determined by plaque assay in the presence of X-gal in top agar.

[5] = tested on: brain; test: Head to head comparison of CAGAXCY variants (L5, N5, M5) vs control lacZ phage; format: in vivo; details: 6 hours after administration vs 2 hours
[6] = tested on: brain; test: CX4CY phage library, one round of in vivo panning to brain; parameters: species or system BALB/c mice; details: 4 hrs post phage injection
Description: A CX4CY library was prepared and tested. 1×10^10 pfu of the library phage were injected into 6 BALB/c mice (3 mice/time point). At 30 min and 4 hr post-injection, brain was harvested and processed as described above. Similar numbers of plaques were picked individually, and the insert sequence amplified by PCR and sequenced. Alignment analysis of the sequence data was performed with a version of Clustral/W.

[7] = tested on: brain, lung, liver, kidney, colon; test: Effect of dose on the brain-targeting properties of T7-CAGALCY (SI, SPI); format: in vivo, FVB female mice; details: for Organ Specificity Index (SPI), ratio of SI brain to colon / Organ Specificity Index (SPI), ratio of SI brain to kidney / Organ Specificity Index (SPI), ratio of SI brain to liver / Organ Specificity Index (SPI), ratio of SI brain to lung / Selectivity index (SI), brain / Selectivity index (SI), colon / Selectivity index (SI), kidney / Selectivity index (SI), liver / Selectivity index (SI), lung: 4 hours; for Organ Specificity Index (SPI), ratio of SI brain to colon / Organ Specificity Index (SPI), ratio of SI brain to kidney / Organ Specificity Index (SPI), ratio of SI brain to liver / Organ Specificity Index (SPI), ratio of SI brain to lung: mean; for Selectivity index (SI), brain / Selectivity index (SI), colon / Selectivity index (SI), kidney / Selectivity index (SI), liver / Selectivity index (SI), lung: mean ± SEM
Description: In the dose response study, in paragraph B below, three mice were used per dose, co-injected with 1×10^7, 1×10^8, 1×10^9, 1×10^10, 1×10^11 pfu of each phage.
For each dose, three mice were injected. Four hours after phage administration, phage were recovered from the brain, lung, liver, kidney, colon, and blood.
This was measured as A3-T7 phage yield per gram tissue from various organs normalized by the yield/g tissue of the control phage.

[8] = tested on: brain; test: kSAR: co-injection of all 20 CAGAXCY (position 5) phage variants, sequence frequency in brain; format: in vivo, BALB/c mice
Description: To determine the optimum amino acid for position 5, all 20 variants at this position were injected. For co-injection of all 20 variants of CAGAXCY phage, individual phage were grown up and titered. Equivalent amounts of each phage type were added to PBS and 200 μL dose of the mixture was injected into 3 BALB/c mice per group (two time points of 30 minutes and 4 hours were studied, total of 6 mice). At 30 min and 4 hrs post injection, the mice were anesthetized, perfused and blood and brain were harvested. Aliquots of both the initial phage pool used for dosing as well as brain tissue samples were plated out, and approximately 100 individual plaques from each set were amplified by PCR using the T7 Super up primer method and sequenced using a CEQ 2000XL sequencer (Beckman Coulter, Calif.).
A total of 107 individual phage from the initial mixture used for dosing were sequenced to verify the relative abundance of the individual phage within the administered dose and these were compared with the relative frequency of the different phage recovered from brain after 30 minutes or 4 hours of circulation. There was a marked and rapid shift in frequency even by 30 minutes, where there was a marked enrichment of phage expressing N at the X5 position, (from 7% in the initial pool to 49%), M (from 5% to 24%) or L (2.8% to 12%) at 30 minutes.

[9] = tested on: brain; test: Co-injection of A3 and control T7-LacZ phage, plaque assay of tissues and blood; format: in vivo, BALB/c mice; details: 10^9 pfu of each phage, tail vein, 1 hour circulation
Description: Plaque assays were used to determine the relative amounts of phage contained in blood and brain. For the blood assays, 300 μl of blood was drawn into 300 μl of 100 mM sodium citrate before perfusion. Plasma was recovered and saved for plaque assay. The phage content was assessed by mixing aliquots of the tissue homogenate or plasma with the bacterial BLT-5615 host, then plating on agar plates.
40 μl of 40 mg/ml of X-gal in DMF was added into 3 ml of top agar in each plate.
A mixture of the two phage (10^9 pfu of each phage) was injected into the tail veins of non-anesthetized BALB/c mice. […] Another measure of selective retention is to compare target organ to blood levels of the test phage.

[10] = 30 minutes after injection of 20-variant mixture
[11] = 4 hours after injection of 20-variant mixture

For `N=C(N)NCCCC[C@@H]1NC(=O)CCSSC[C@@H](C(N)=O)NC(=O)[C@@H]2CCCN2C(=O)[C@H](Cc2c[nH]c3ccccc23)NC(=O)[C@H](CC(=O)O)NC(=O)CNC1=O` [Integrilin] ([Mpa][hArg]GDWPC-NH2; disulfide 1-7), the “platelet adhesion to pial vessels” value ([1]; 4 hours after i.p. 10 μg LPS, Integrilin at 40 mg/kg) was “slight antagonistic effect” and the “DIC and adhesion of microaggregates to the brain vasculature” value ([1]; higher doses than 40 mg/kg) was “exacerbated DIC and adhesion of microaggregates to the brain vasculature”.

For `CC(C)C[C@@H]1NC(=O)[C@H](C)NC(=O)CNC(=O)[C@H](C)NC(=O)[C@@H](N)CSSC[C@@H](C(=O)N[C@@H](Cc2ccc(O)cc2)C(=O)O)NC1=O` [free synthetic peptide, CAGALCY] (H-CAGALCY-OH; disulfide 1-6), the half-life [2] was 1 to 2 min.

In the case of CAGAGCY, the “Brain Targeting Activity” value [3] was “No”, the “Brain Targeting Activity” value ([3]; listed as L5G) was “loss of brain targeting activity” and the “Selectivity index (FVB female)” value [3] was 1.1.

In the case of CAGALC, the “Brain Targeting Activity” value [3] was “No” and the “Selectivity index (FVB female)” value [3] was 1.5.

With CAGALCAY the “Brain Targeting Activity” value [3] was “brain targeting activity is lost and No” and the “Selectivity index (FVB female)” value [3] was 1.4.

With CAGALCF the “Brain Targeting Activity” value [3] was “Yes”, the “Selectivity index (BALB/C mice)” value [3] was 800 and the “Selectivity index (FVB female)” value [3] was greater than 200.

With CAGALCS the “Brain Targeting Activity” value [3] was “loss of brain targeting activity and No” and the “Selectivity index (FVB female)” value [3] was 3.0.

For CAGALCY [T7-A3], the “ratio of yield/g brain and yield/mL blood between T7-A3 and T7-lacZ phage” value ([4]; 2 hr) was 250, the “Selectivity index (SI), brain” value ([4]; 2 hr, 1×10^10 pfu) was 51 and the “Selectivity index (SI), lung” value ([4]; 2 hr, 1×10^10 pfu) was 16.0. The “selectivity index (SI), spleen” value ([4]; 2 hr, 1×10^10 pfu) was 1.98, the “relative specificity for brain (SI brain compared to lung)” value ([4]; 4 hour time point) was 6 fold and the “ratio of yield/g brain and yield/mL blood between T7-A3 and T7-lacZ phage” value ([4]; 4 hr) was 1200. The “Selectivity index (SI), brain” value ([4]; 4 hr, 1×10^10 pfu) was 280 and 288, the “Selectivity index (SI), liver” value ([4]; 4 hr, 1×10^10 pfu) was 4.62 and the “Selectivity index (SI), lung” value ([4]; 4 hr, 1×10^10 pfu) was 54.8 and 47. The “selectivity index, brain” value ([4]; difference of half-lives in blood taken into account) was “over 100”, the “change of brain SI values” [5] was “increase further” and the “enrichment among 83 sequences sampled from the brain” value [6] was “no enriched phage”. For the same compound, the “Organ Specificity Index (SPI), ratio of SI brain to colon” value ([7]; 1 × 10^7 pfu) was 4.57, the “Organ Specificity Index (SPI), ratio of SI brain to kidney” value ([7]; 1 × 10^7 pfu) was 1.92 and the “Organ Specificity Index (SPI), ratio of SI brain to liver” value ([7]; 1 × 10^7 pfu) was 2.34. For the same compound, the “Organ Specificity Index (SPI), ratio of SI brain to lung” value ([7]; 1 × 10^7 pfu) was 4.23, the “Selectivity index (SI), brain” value ([7]; 1 × 10^7 pfu) was 13.2 and the “Selectivity index (SI), colon” value ([7]; 1 × 10^7 pfu) was 1.8 ± 1.1. For the same compound, the “Selectivity index (SI), kidney” value ([7]; 1 × 10^7 pfu) was 5.0 ± 3.1, the “Selectivity index (SI), liver” value ([7]; 1 × 10^7 pfu) was 6.3 ± 5.4 and the “Selectivity index (SI), lung” value ([7]; 1 × 10^7 pfu) was 1.9 ± 0.8. For the same compound, the “Organ Specificity Index (SPI), ratio of SI brain to colon” value ([7]; 1 × 10^8 pfu) was 2.82, the “Organ Specificity Index (SPI), ratio of SI brain to kidney” value ([7]; 1 × 10^8 pfu) was 2.08 and the “Organ Specificity Index (SPI), ratio of SI brain to liver” value ([7]; 1 × 10^8 pfu) was 3.27. The “Organ Specificity Index (SPI), ratio of SI brain to lung” value ([7]; 1 × 10^8 pfu) was 0.65, the “Selectivity index (SI), brain” value ([7]; 1 × 10^8 pfu) was 10.5 and 10 and the “Selectivity index (SI), colon” value ([7]; 1 × 10^8 pfu) was 4.3 ± 1.8. For the same compound, the “Selectivity index (SI), kidney” value ([7]; 1 × 10^8 pfu) was 5.4 ± 1.3, the “Selectivity index (SI), liver” value ([7]; 1 × 10^8 pfu) was 4.2 ± 1.9 and the “Selectivity index (SI), lung” value ([7]; 1 × 10^8 pfu) was 14.3 ± 6.8. For the same compound, the “Organ Specificity Index (SPI), ratio of SI brain to colon” value ([7]; 1 × 10^9 pfu) was 8.87, the “Organ Specificity Index (SPI), ratio of SI brain to kidney” value ([7]; 1 × 10^9 pfu) was 3.27 and the “Organ Specificity Index (SPI), ratio of SI brain to liver” value ([7]; 1 × 10^9 pfu) was 26. For the same compound, the “Organ Specificity Index (SPI), ratio of SI brain to lung” value ([7]; 1 × 10^9 pfu) was 3.23, the “Selectivity index (SI), brain” value ([7]; 1 × 10^9 pfu) was 121 and the “Selectivity index (SI), colon” value ([7]; 1 × 10^9 pfu) was 18.3 ± 6.8. For the same compound, the “Selectivity index (SI), kidney” value ([7]; 1 × 10^9 pfu) was 47.3 ± 18.5, the “Selectivity index (SI), liver” value ([7]; 1 × 10^9 pfu) was 8.2 ± 3.1 and the “Selectivity index (SI), lung” value ([7]; 1 × 10^9 pfu) was 47.3 ± 12.5. For the same compound, the “Organ Specificity Index (SPI), ratio of SI brain to lung” value ([7]; 1 × 10^10 pfu) was 4.03, the “Selectivity index (SI), brain” value ([7]; 1 × 10^10 pfu) was 150 and the “Selectivity index (SI), colon” value ([7]; 1 × 10^10 pfu) was 7.9 ± 1.2. For the same compound, the “Selectivity index (SI), kidney” value ([7]; 1 × 10^10 pfu) was 20.7 ± 6.4, the “Selectivity index (SI), liver” value ([7]; 1 × 10^10 pfu) was 8.9 ± 5.1 and the “Selectivity index (SI), lung” value ([7]; 1 × 10^10 pfu) was 40.7 ± 9.2. For the same compound, the “Organ Specificity Index (SPI), ratio of SI brain to lung” value ([7]; 1 × 10^11 pfu) was 3.3, the “Selectivity index (SI), brain” value ([7]; 1 × 10^11 pfu) was 118 ± 47.3 and the “Selectivity index (SI), colon” value ([7]; 1 × 10^11 pfu) was 5.3 ± 1.6. For the same compound, the “Selectivity index (SI), kidney” value ([7]; 1 × 10^11 pfu) was 10.3 ± 1.7, the “Selectivity index (SI), liver” value ([7]; 1 × 10^11 pfu) was 4.2 ± 0.4 and the “Selectivity index (SI), lung” value ([7]; 1 × 10^11 pfu) was 35.3 ± 11.0. The “SPI values for lung, liver, kidney or colon compared to the other organs” value ([7]; all doses tested) was “lower than 10”, the “Brain Targeting Activity” value [3] was “Yes” and the “Selectivity index (BALB/C mice)” value [3] was 1000. For the same compound, the “Selectivity index (FVB female)” value [3] was greater than 200, the “frequency of phage variant recovered from brain” value (“frequency” below) [8, 10] was 12% and the “frequency” value [8, 11] was 7.5%. For the same compound, the “brain to blood ratio after normalization to control phage” value [9] was greater than 100 fold.

For CAGALSY, the “Brain Targeting Activity” value [3] was “brain targeting capacity is lost and No” and the “Selectivity index (FVB female)” value [3] was 1.9.

For CAGAMCY, the “change of brain SI values” [5] was “increase further”, the “enrichment among 83 sequences sampled from the brain” value [6] was “no enriched phage” and the “frequency” value [8, 10] was 24%. The “frequency” value [8, 11] was 37%.

For CAGANCY, the “change of brain SI values” [5] was “slight decrease”, the “enrichment among 83 sequences sampled from the brain” value [6] was “no enriched phage” and the “frequency” value [8, 10] was 49%. For the same compound, the “frequency” value [8, 11] was 55%.

In the case of CAGAPCY, the “Brain Targeting Activity” value [3] was “brain targeting capacity is lost and No” and the “Selectivity index (FVB female)” value [3] was 7.6.
